We go through three compounds from PMC7600403, “Development of an Oil-in-Water Self-Emulsifying Microemulsion for Cutaneous Delivery of Rose Bengal: Investigation of Anti-Melanoma Properties” (Pharmaceutics, 2020).

Bounds are passed on as bounds.

Series [1] relates to HaCaT. The experiment in a line: MTT cell viability assay of SEMEs and excipients (60 min). It is filed as cell-based, human. The conditions noted are these: 60 min incubation, mean (95% CI), n = 5, >Max Conc. = not reaching the sensitive range. As for the experimental part: (§1) Human melanoma cell lines (WM164, WM1366, and D24), spontaneously immortalized normal human keratinocytes (HaCaT), and primary skin fibroblast cells were kindly provided by A/Prof. Helmut Schaider’s laboratory (University of Queensland Diamantina Institute). The cells were grown in RPMI medium (+ L-glutamine) supplemented with 5% (v/v) FBS and 2% penicillin/streptomycin—except for the fibroblast cells which were cultured in DMEM. Cells were routinely grown in culture flasks and maintained at 37 °C in a humidified 5% CO2 atmosphere. The culture media was replaced with fresh media every two to three days. Cells were detached using trypsin–EDTA when they reached approximately 80% confluence to seed or subculture. A low passage number (6–12) of primary fibroblast was used during the experiments, and regular microbial contamination testing was done.
(§2) To exclude any toxic effect of the blank SEMEs and their constituents on human skin cells, an MTT cell viability test was performed based on the original protocol. In this assay, the yellow tetrazolium salt MTT is reduced to insoluble purple formazan crystals by metabolically live cells.
(§3) After 60 min incubation of treated cells, the excipient-containing medium was removed, and 100 μL of MTT in PBS (5 mg/mL) diluted 1:10 in medium was then added. Plates were further incubated in the dark for 2–3 h, after which time the wells were emptied and the purple formazan was dissolved by addition of 200 μL of DMSO to each well. Plates were located in a shaker for 5 min at room temperature and the absorbance of the solutions in the wells was measured at 570 nm using a microplate reader (Multiskan™ FC Microplate Photometer). The impact of each treatment was determined as the percentage of reduced tetrazolium salt against the control cells (untreated cells with medium only).
(§4) The cytotoxicity at each excipient concentration was expressed as a percentage of viability against the untreated control wells (the mean optical density of untreated cells was set at 100% viability) to construct a dose-dependent cytotoxicity plot.
(§5) The percentage viability was calculated as follows (Equation (1)):(1) % Viability= Mean absorbance of treated wells/Mean absorbance of control wellno excipients ×100.
(§6) The cytotoxicity of the excipients and formulations (treatments) was expressed as an IC50 value (concentration causing 50% death of the cell population). The IC50 value for each treatment concentration was calculated from the dose–response curves plotted in GraphPad Prism 7 (GraphPad Software Inc. California, USA) with log (treatment concentration) on the x-axis and percentage survival on the y-axis. The IC50 value was obtained by fitting the dose–response curve with a nonlinear regression curve (Dose-response-inhibition) on GraphPad Prism 7. […] All IC50 values were expressed as v/v (%).

Series [2] deals with WM1366. The description is as above. It is filed as cell-based, human. The settings on record: WM1366, 60 min incubation; mean (95% CI), n = 5; >Max Conc. = not reaching the sensitive range. As for the experimental part:
as §1, §2, §3, §4, §5, §6

The test system of series [3] is WM164. The description is as above. The conditions noted are these: WM164, 60 min incubation; mean (95% CI), n = 5; >Max Conc. = not reaching the sensitive range for the applied concentrations. It is filed as cell-based, human. The protocol:
as §1, §2, §3, §4, §5, §6

Series [4] concerns D24. Kind of series: MTT assay, inhibitory effect of RB in different delivery systems. It is filed as cell-based, human. As for the experimental part: as §1
(§7) For the 72-h MTT assay, cells were seeded into flat bottom 96-well cell culture plates in 100 μL of complete culture medium at the initial density of […]. Cells were incubated under 5% CO2 at 37 °C for 24 h for adhering to the wells and medium was then replaced with 100 μL of fresh medium containing treatment solution at the required final concentration. Each concentration was tested in 3 replicates in 3 independent studies and control cells were exposed to the culture medium only.
(§8) The MTT cell viability assay was also used as a proxy measure for cell proliferation. Cells were plated in 96-well culture plates, at a density of 8000 cells per well in 100 μL of medium and incubated for 24 h. Treatment solutions of active drug in milli-Q® water or incorporating in SEME were prepared in cell culture medium immediately before use and added in a volume of 100 μL at desired final concentrations. After a specific period, cell viability was evaluated by MTT assay. All experiments were performed in triplicate.
as §6

The test system of series [5] is HaCaT. The series is described as above. It is filed as cell-based, human. The protocol:
as §1, §7, §8, §6

Series [6] deals with WM1366. Described as above. It is filed as cell-based, human. As for the experimental part:
as §1, §7, §8, §6

In series [7] the test system is WM164. The description is as above. It is filed as cell-based, human. As for the experimental part:
as §1, §7, §8, §6

Series [8] has as its system primary skin fibroblast cells. The series is described as above. It is filed as cell-based, human. As for the experimental part: as §1, §7, §8, §6
Series [9] concerns D24. Kind of series: Cell cycle analysis by flow cytometry (PI staining, sub G0G1). It is filed as cell-based, human. The conditions noted are these: D24, 50 µM RB, 24-h treatment; untreated 2.54. As for the experimental part: (§9) Apoptotic cells were detected using Propidium Iodide (PI) staining of treated cells followed by flow cytometry to detect the sub-G1 peak. It has been reported that small segments of DNA caused by DNA fragmentation can be eluted following incubation in a hypotonic phosphate-citrate buffer. When stained with a quantitative DNA binding dye such as PI, cells that have lost DNA will take up less stain and will appear to the left of the G1 peak.
(§10) Briefly, melanoma cells were cultured overnight in a 6-well plate to subconfluence and treated with RB (50 µM) for 24 h. Floating and adherent cells were harvested by a trypsin-based method and fixed by ice cold 70% ethanol. Cells were incubated at 4 °C for at least 24 h in the dark and stained using 70 μM Propidium Iodide in 500 µl of a 38-mM hypotonic tri-sodium citrate buffer supplemented with 5 μg/mL RNase A before flow cytometric analysis using a FACScan. […]
(§11) 6. Cell Cycle Analysis by Flow Cytometry
(§12) After determining that RB decreased cell viability of human skin melanoma cells in a dose-dependent manner, the mechanism of cell death was investigated by flow cytometry. As RB-induced cell death was evident upon exposure to concentrations >50 μM, the cells were treated with 50-μM RB in water, SEME+PG and SEME-PG for 24 h for cell cycle analysis. […]
(§13) increases in apoptotic cell populations when cells were treated with RB-loaded SEMEs compared to […]
(§14) selective cell death mechanism could be a key for an effective antimelanoma drug.
(§15) Figure S7. Cell cycle histograms after RB treatment. RB induces apoptosis in melanoma cells. Flow cytometry histograms of apoptosis assays by the PI method. Cells were treated with 50 μM of RB incorporated in different delivery systems for 24 h. The SubG0G1 region (shown by asterisks) indicates the presence of apoptotic cells induced in melanoma cells treated with RB incorporated in SEMEs.
(§16) The percentages of apoptotic cell populations in cancerous and non-cancerous cells are shown in […]
(§17) Table 4 of the manuscript. […]
(§18) with RB loaded in a SEME containing PG.

A further series has as its system Fibroblast. Described as above. The settings on record: 50 µM RB, 24-h treatment, untreated 0.00. It is filed as cell-based, human. The protocol:
as §9, §10, §11, §12, §13, §14, §15, §16, §17, §18

Series [10] relates to HaCaT. The series is described as above. It is filed as cell-based, human. The conditions noted are these: 50 µM RB, 24-h treatment, untreated 1.07. The protocol: as §9, §10, §11, §12, §13, §14, §15, §16, §17, §18
Series [11] relates to WM1366. Described as above. It is filed as cell-based, human. The settings on record: WM1366, 50 µM RB, 24-h treatment; untreated 0.89. As for the experimental part: as §9, §10, §11, §12, §13, §14, §15, §16, §17, §18
Series [12] concerns WM164. The series is described as above. It is filed as cell-based, human. The settings on record: WM164, 50 µM RB, 24-h treatment; untreated 3.94. The protocol: as §9, §10, §11, §12, §13, §14, §15, §16, §17, §18
Details of series [13]: method as in PubChem. The settings on record: ref PubChem; cited from earlier work.
Series [14] has as its system D24. Kind of series: MTT cell viability assay of SEMEs and excipients (60 min). It is filed as cell-based, human. The conditions noted are these: D24, 60 min incubation; mean (95% CI), n = 5; >Max Conc. = not reaching the sensitive range. As for the experimental part:
as §1, §2, §3, §4, §5, §6

The test system of series [15] is primary skin fibroblast cells. The description is as above. The conditions noted are these: 60 min incubation, mean (95% CI), n = 5, >Max Conc. = not reaching the sensitive range. It is filed as cell-based, human. As for the experimental part: as §1, §2, §3, §4, §5, §6
Series [16] relates to WM164, WM1366, D24, HaCaT and fibroblast cells. Kind of series: MTT cell viability assay of excipients, all tested cell lines together. It is filed as cell-based, human. The settings on record: 60 min MTT; maximum concentration used 10 (v/v %). As for the experimental part:
To exclude any toxic effect of the blank SEMEs and their constituents on human skin cells, an MTT cell viability test was performed based on the original protocol. In this assay, the yellow tetrazolium salt MTT is reduced to insoluble purple formazan crystals by metabolically live cells. After 60 min incubation of treated cells, the excipient-containing medium was removed, and 100 μL of MTT in PBS (5 mg/mL) diluted 1:10 in medium was then added. Plates were further incubated in the dark for 2–3 h, after which time the wells were emptied and the purple formazan was dissolved by addition of 200 μL of DMSO to each well. Plates were located in a shaker for 5 min at room temperature and the absorbance of the solutions in the wells was measured at 570 nm using a microplate reader (Multiskan™ FC Microplate Photometer). The impact of each treatment was determined as the percentage of reduced tetrazolium salt against the control cells (untreated cells with medium only). […] The IC50 value for each treatment concentration was calculated from the dose–response curves plotted in GraphPad Prism 7 (GraphPad Software Inc. California, USA) with log (treatment concentration) on the x-axis and percentage survival on the y-axis. […] All IC50 values were expressed as v/v (%).

As to `CC(O)CO` (centres unmarked) [PG, propylene glycol], the IC50 entry in the series with HaCaT [1], in the series on WM1366 [2] and in the series with WM164 [3] was “>Max Conc” in each case.

For the compound `O=C([O-])c1c(Cl)c(Cl)c(Cl)c(Cl)c1-c1c2cc(I)c(=O)c(I)c-2oc2c(I)c([O-])c(I)cc12.[Na+].[Na+]` [RB, 4,5,6,7-tetrachloro-2, 4′, 5′, 7--tetraiodofluorescein disodium salt], the IC50 amounted to 45.6 µM in the series with D24 [4] (RB and encapsulated RB, D24, 48 h incubation, concentration of RB, mean (95% CI), n = minimum of 4); 131 µM in the series with D24 [4] (RB aqueous solution, D24, 24 h); 70 µM in the series with D24 [4] (RB aqueous solution, D24, 48 h (Table 2)); 27.3 µM with D24 [4] (RB aqueous solution, D24, 72 h); 153 µM with HaCaT [5] (RB and encapsulated RB, 48 h incubation, concentration of RB, mean (95% CI), n = minimum of 4, read-out: IC50); 2250 µM with HaCaT [5] (RB aqueous solution, 24 h, read-out: IC50). Moreover, the IC50 in the series with HaCaT [5] (RB aqueous solution, 48 h (Table 2), read-out: IC50) is 221 µM; in the series on HaCaT [5] (RB aqueous solution, 72 h), “>Max Conc”; in the series on WM1366 [6] (RB and encapsulated RB, WM1366, 48 h incubation, concentration of RB, mean (95% CI), n = minimum of 4, read-out: IC50) it was 98.9 µM; in the series on WM1366 [6] (RB aqueous solution, WM1366, 24 h), “>Max Conc”; in the series on WM1366 [6] (RB aqueous solution, WM1366, 48 h (Table 2), read-out: IC50), 110 µM; in the series with WM1366 [6] (RB aqueous solution, WM1366, 72 h, read-out: IC50) it was roughly 114 µM. Moreover, the IC50 with WM164 [7] (RB and encapsulated RB, WM164, 48 h incubation, concentration of RB, mean (95% CI), n = minimum of 4, vehicle concentration constant) stood at 103 µM; in the series with WM164 [7] (RB aqueous solution, WM164, 24 h) it was 112 µM; with WM164 [7] (RB aqueous solution, WM164, 48 h (Table 2)) it was 107 µM; in the series with WM164 [7] (RB aqueous solution, WM164, 72 h), 109 µM; in series [8] (RB and encapsulated RB, 48 h incubation, concentration of RB, mean (95% CI), n = minimum of 4) it was 188 µM; in series [8] (RB aqueous solution, 24 h), 238 µM. The IC50 was found to be 459 µM in series [8] (RB aqueous solution, 48 h (Table 2)) and 108 µM in [8] (RB aqueous solution, 72 h). Moreover, the “Apoptotic Cells % (Sub G0G1)” value in the series with D24 [9] is recorded as 2.66%; with Fibroblast it was 0.99%; with HaCaT [10] it was 1.15%; in the series on WM1366 [11], 2.29%; in the series on WM164 [12], 6.69%. In [13], the lipophilicity (log P) is listed as 7.6.

Take `CCOCCOCCO` [Transcutol®, diethylene glycol monoethyl ether]: the IC50 was 4.55 (3.1-8.2) v/v % in the series on D24 [14]; 5.75 (very wide) v/v % with HaCaT [1]; “>Max Conc” with WM1366 [2]; ~5.6 (very wide) v/v % in the series with WM164 [3]; “>Max Conc” in [15]. The “IC50, range over all the cell lines” value in series [16] is ≥ 4.55 v/v (%).
